Experimental findings from US20250051344A1, “BIFUNCTIONAL SELECTIVE DEGRADERS OF SMARCA2 AND THERAPEUTIC USES THEREOF” (Nurix Therapeutics, Inc., priority 2023, published 2025) are described below.

Each structure is given as a SMILES string.

Assay [1] has as its target T1, SMARCA4 (Homo sapiens, UniProt P51532).
T1 construct: endogenous in cells
In words: Cellular degradation assay, SMARCA4 (Table 1). In kind it is cell-based.

For assay [2], the target named is T2, SMARCA2 (Homo sapiens, UniProt P51531).
T2 construct: endogenous in cells
T2 sequence (P51531 whole entry, species assumed): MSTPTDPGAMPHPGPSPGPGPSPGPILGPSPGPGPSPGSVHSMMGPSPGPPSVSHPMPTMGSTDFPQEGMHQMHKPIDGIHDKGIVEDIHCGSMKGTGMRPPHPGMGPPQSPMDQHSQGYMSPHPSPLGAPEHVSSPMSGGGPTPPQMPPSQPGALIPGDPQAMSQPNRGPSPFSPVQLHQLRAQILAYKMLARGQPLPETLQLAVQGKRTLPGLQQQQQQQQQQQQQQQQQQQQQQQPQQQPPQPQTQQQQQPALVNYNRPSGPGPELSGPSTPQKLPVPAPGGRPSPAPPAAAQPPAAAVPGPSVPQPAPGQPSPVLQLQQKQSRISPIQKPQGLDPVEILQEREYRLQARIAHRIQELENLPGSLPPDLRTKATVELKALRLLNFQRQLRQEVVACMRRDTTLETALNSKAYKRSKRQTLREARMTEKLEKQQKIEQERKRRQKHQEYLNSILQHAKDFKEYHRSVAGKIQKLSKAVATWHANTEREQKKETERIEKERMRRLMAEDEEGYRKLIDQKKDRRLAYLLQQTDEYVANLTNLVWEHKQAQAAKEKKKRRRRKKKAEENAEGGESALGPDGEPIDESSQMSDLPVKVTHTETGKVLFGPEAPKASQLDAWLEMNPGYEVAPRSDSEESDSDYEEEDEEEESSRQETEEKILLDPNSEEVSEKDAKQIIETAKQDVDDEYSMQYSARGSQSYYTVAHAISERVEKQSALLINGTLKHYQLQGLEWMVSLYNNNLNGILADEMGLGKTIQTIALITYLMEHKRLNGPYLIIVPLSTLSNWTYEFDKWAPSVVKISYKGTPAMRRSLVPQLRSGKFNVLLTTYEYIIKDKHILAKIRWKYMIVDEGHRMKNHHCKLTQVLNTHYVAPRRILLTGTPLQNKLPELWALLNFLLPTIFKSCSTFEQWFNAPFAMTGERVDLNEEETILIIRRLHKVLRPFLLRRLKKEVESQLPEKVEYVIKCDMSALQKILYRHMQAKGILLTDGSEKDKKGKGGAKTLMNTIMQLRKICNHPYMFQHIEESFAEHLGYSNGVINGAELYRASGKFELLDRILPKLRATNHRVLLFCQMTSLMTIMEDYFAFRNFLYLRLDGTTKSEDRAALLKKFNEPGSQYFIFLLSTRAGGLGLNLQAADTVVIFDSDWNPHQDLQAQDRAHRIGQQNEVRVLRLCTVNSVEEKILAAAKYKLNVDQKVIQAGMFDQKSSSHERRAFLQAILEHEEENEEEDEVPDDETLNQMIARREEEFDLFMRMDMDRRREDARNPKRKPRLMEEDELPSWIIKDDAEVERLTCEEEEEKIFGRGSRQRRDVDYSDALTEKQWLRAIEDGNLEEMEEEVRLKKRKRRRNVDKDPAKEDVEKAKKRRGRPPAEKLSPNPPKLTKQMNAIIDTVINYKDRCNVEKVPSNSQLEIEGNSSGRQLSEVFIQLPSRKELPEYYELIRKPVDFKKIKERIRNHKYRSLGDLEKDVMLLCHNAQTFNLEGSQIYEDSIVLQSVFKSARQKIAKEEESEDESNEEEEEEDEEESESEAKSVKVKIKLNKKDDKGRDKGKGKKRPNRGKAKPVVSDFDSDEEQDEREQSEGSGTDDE
In words: SMARCA2 Cellular Degradation Assay (Western blot analysis on Jess platform). In kind it is cell-based. Conditions: for DC50 / Dmax: cellular degradation; for Fold Selectivity SMARCA4/2: ratio DC50 SMARCA4 / DC50 SMARCA2. In a few lines:
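Lysates of cells extracted from tumors, 5 μg total protein per capillary, were probed for SMARCA2 and β-actin by capillary Western on Jess using chemiluminescence and fluorescence detection. SMARCA2 peak area was background-subtracted and normalized to actin, then expressed as % remaining relative to vehicle control.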
For orientation: A western blot detects proteins with antibodies after separation by electrophoresis.

T1 sequence (P51532 whole entry, species assumed): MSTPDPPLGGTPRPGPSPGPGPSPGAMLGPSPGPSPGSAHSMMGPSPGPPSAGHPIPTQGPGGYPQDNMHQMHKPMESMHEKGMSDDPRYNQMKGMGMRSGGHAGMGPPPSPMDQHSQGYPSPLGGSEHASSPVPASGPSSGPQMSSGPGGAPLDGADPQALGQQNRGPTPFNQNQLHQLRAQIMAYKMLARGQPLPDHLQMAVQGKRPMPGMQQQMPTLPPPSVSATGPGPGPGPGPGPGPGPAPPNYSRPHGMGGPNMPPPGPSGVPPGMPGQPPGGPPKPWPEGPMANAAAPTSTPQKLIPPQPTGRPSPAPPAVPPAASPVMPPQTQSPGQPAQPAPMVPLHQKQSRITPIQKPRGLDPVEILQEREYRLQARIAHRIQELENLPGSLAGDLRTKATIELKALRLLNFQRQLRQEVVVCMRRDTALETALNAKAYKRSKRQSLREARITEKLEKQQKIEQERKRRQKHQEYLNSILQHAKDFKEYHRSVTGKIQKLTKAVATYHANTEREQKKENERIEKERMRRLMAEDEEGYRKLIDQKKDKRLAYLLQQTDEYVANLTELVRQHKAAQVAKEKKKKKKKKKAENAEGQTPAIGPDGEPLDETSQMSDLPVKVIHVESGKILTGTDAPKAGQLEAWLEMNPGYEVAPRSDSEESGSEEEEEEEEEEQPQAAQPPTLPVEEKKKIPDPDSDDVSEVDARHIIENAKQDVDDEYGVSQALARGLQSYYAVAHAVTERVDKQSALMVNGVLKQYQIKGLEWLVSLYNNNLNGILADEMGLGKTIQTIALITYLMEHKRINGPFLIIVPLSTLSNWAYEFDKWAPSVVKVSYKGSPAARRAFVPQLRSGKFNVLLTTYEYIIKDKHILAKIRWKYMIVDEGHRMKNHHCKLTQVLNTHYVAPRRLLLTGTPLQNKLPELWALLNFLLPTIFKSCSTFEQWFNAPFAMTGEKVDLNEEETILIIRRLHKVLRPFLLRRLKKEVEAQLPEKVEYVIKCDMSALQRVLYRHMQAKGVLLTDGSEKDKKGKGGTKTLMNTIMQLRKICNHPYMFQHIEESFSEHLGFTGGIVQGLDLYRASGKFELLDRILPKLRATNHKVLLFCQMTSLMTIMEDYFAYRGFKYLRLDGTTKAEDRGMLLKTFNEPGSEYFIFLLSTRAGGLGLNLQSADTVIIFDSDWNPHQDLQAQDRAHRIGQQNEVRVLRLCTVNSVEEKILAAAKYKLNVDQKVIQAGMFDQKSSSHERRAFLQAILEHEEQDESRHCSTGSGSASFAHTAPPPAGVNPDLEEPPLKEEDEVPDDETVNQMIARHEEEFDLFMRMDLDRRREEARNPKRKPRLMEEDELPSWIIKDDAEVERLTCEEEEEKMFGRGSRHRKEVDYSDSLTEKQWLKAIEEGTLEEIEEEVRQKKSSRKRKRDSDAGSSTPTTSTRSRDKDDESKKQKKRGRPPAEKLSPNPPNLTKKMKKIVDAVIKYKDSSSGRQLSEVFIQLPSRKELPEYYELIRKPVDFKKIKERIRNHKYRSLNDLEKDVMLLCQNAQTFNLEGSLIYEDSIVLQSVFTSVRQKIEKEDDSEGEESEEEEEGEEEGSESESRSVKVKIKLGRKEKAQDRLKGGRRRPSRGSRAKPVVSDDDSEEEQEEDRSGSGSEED

Broadly, the DC50 is the midpoint of the concentration-degradation curve. Low values mean degradation at low concentration, high ones degradation only at high concentration. What is called Dmax is the largest share of the target that was removed. Read a low Dmax as a partial loss of target. In assay [1], `O=C1CCC(c2ccc(C3CCN(CC(=O)N4CC5(C4)CN(C(=O)C4(Oc6ccccc6Cl)CCN(c6cnnc(-c7ccccc7O)c6)CC4)C5)CC3)cc2)C(=O)N1` (racemic) [Example 113, rac-(r)-3-(4-(1-(2-(6-(4-(2-chlorophenoxy)-1-(6-(2-hydroxyphenyl)pyridazin-4-yl)piperidine-4-carbonyl)-2,6-diazaspiro[3.3]heptan-2-yl)-2-oxoethyl)piperidin-4-yl)phenyl)piperidine-2,6-dione] came in with a DC50 of 87.4 nM and a Dmax of 63.4%. In assay [2], the 50% degradation concentration (DC50) turned out to be 9.76 nM, the Dmax is 83.6% and the “Fold Selectivity SMARCA4/2” value was determined as 9.
As for `CC1CC2CN(CC3CCN(c4ccc([C@H]5CCC(=O)NC5=O)cc4)CC3)CC2N1C(=O)C1(c2ccccc2)CCN(c2cnnc(-c3ccccc3O)c2)CC1` (stereo partly drawn) [Example 50, (3R)-3-(4-{4-[(1-{1-[6-(2-hydroxyphenyl)pyridazin-4-yl]-4-phenylpiperidine-4-carbonyl}-2-methyl-hexahydropyrrolo[2,3-c]pyrrol-5-yl)methyl]piperidin-1-yl}phenyl)piperidine-2,6-dione], the greatest degradation seen (Dmax) in assay [1] is 20.2%. Also, in assay [2], half-maximal degradation (DC50) was put at 136 nM, the Dmax turned out to be 53.4% and the “Fold Selectivity SMARCA4/2” value was 73.54.
`O=C1CC[C@H](c2ccc(N3CCC(CN4CCC(NC(=O)C5(c6ccccn6)CCN(c6cnnc(-c7ccccc7O)c6)CC5)CC45CCC5)CC3)cc2)C(=O)N1` (stereo partly drawn) [Example 182, N-{5-[(1-{4-[(3R)-2,6-dioxopiperidin-3-yl]phenyl}piperidin-4-yl)methyl]-5-azaspiro[3.5]nonan-8-yl}-1-[6-(2-hydroxyphenyl)pyridazin-4-yl]-4-(pyridin-2-yl)piperidine-4-carboxamide]: in assay [1], it took 62.6 nM to reach half-maximal degradation (DC50) and the maximal degradation (Dmax) was found to be 57.1%. Moreover, in assay [2], it took 2.76 nM to reach half-maximal degradation (DC50), the maximal degradation (Dmax) was 82.5% and the “Fold Selectivity SMARCA4/2” value came out at 23.
As to `COC1(C(=O)N(C)C2CCN(CCC3CCN(c4ccc([C@H]5CCC(=O)NC5=O)cc4)CC3)CC2)CCN(c2cnnc(-c3ccccc3O)c2)CC1` [Example 196, (r)-n-(1-(2-(1-(4-(2,6-dioxopiperidin-3-yl)phenyl)piperidin-4-yl)ethyl)piperidin-4-yl)-1-(6-(2-hydroxyphenyl)pyridazin-4-yl)-4-methoxy-n-methylpiperidine-4-carboxamide], the Dmax in assay [1] worked out at 28%. For the same compound, in assay [2], half-maximal degradation (DC50) was put at 14 nM, the greatest degradation seen (Dmax) worked out at 74% and the “Fold Selectivity SMARCA4/2” value stood at 714.
On the same counts, the results for `CC1(CCN2CC3(C2)CN(C(=O)C2(c4ccccc4)CCN(c4cnnc(-c5ccccc5O)c4)CC2)C3)CCN(c2ccc(C3CCC(=O)NC3=O)cc2)CC1` (racemic) [Example 131, rac-(3R)-3-(4-{4-[2-(6-{1-[6-(2-hydroxyphenyl)pyridazin-4-yl]-4-phenylpiperidine-4-carbonyl}-2,6-diazaspiro[3.3]heptan-2-yl)ethyl]-4-methylpiperidin-1-yl}phenyl)piperidine-2,6-dione] are 38.9%, 29.4 nM, 71.3% and 340.
Consider `CC1(C)CC(NC(=O)C2(c3ccccc3)CCN(c3cnnc(-c4ccccc4O)c3)CC2)CCN1CC1CCN(c2ccc([C@H]3CCC(=O)NC3=O)cc2)CC1` (stereo partly drawn) [Example 183, N-{1-[(1-{4-[(3R)-2,6-dioxopiperidin-3-yl]phenyl}piperidin-4-yl)methyl]-2,2-dimethylpiperidin-4-yl}-1-[6-(2-hydroxyphenyl)pyridazin-4-yl]-4-phenylpiperidine-4-carboxamide], for which, in assay [1], the DC50 worked out at 249 nM and the maximal degradation (Dmax) worked out at 56.2%. Besides, in assay [2], it took 6.43 nM to reach half-maximal degradation (DC50), the Dmax amounted to 80.7% and the “Fold Selectivity SMARCA4/2” value is given as 39.
On the same counts, the results for `O=C1CCC(c2ccc(N3C[C@@H]4CN(CC5CCN(C(=O)C6(c7ccccc7)CCN(c7cnnc(-c8ccccc8O)c7)CC6)CC5)C[C@H]4C3)cc2)C(=O)N1` (mixture of isomers) [Example 160, (3RS)-3-{4-[(3aS,6aS)-5-[(1-{1-[6-(2-hydroxyphenyl)pyridazin-4-yl]-4-phenylpiperidine-4-carbonyl}piperidin-4-yl)methyl]-octahydropyrrolo[3,4-c]pyrrol-2-yl]phenyl}piperidine-2,6-dione] are 104 nM, 71.4%, 12 nM, 87.7% and 9.
In assay [1], `O=C1CC[C@H](c2ccc(N3CCC(CN4CC5(C4)CN(C(=O)C4(Oc6ccccc6Cl)CCN(c6cnnc(-c7ccccc7O)c6)CC4)C5)CC3)cc2)C(=O)N1` [Example 119, (r)-3-(4-(4-((6-(4-(2-chlorophenoxy)-1-(6-(2-hydroxyphenyl)pyridazin-4-yl)piperidine-4-carbonyl)-2,6-diazaspiro[3.3]heptan-2-yl)methyl)piperidin-1-yl)phenyl)piperidine-2,6-dione] yielded a DC50 of 20.3 nM and a maximal degradation (Dmax) of 79.4%. Moreover, in assay [2], the half-maximal degradation concentration (DC50) came to 3.52 nM, the Dmax is 89.2% and the “Fold Selectivity SMARCA4/2” value came out at 6.
In assay [1], `Cc1ccn(C2(C(=O)NC3CCN(CC4CCN(c5ccc([C@H]6CCC(=O)NC6=O)cc5)CC4)C4(CCC4)C3)CCN(c3cnnc(-c4ccccc4O)c3)CC2)n1` (stereo partly drawn) [Example 162, N-{5-[(1-{4-[(3R)-2,6-dioxopiperidin-3-yl]phenyl}piperidin-4-yl)methyl]-5-azaspiro[3.5]nonan-8-yl}-1-[6-(2-hydroxyphenyl)pyridazin-4-yl]-4-(3-methyl-1H-pyrazol-1-yl)piperidine-4-carboxamide] gave a half-maximal degradation concentration (DC50) of 25.9 nM and a Dmax of 63.9%. Besides, in assay [2], half-maximal degradation (DC50) was put at 2.62 nM, the Dmax was 84.7% and the “Fold Selectivity SMARCA4/2” value is 10.
On the same counts, the results for `COC1(C(=O)N(C)C2CCN(CCC3CCN(c4cccc5c4n(C)c(=O)n5C4CCC(=O)NC4=O)CC3)CC2)CCN(c2cnnc(-c3ccccc3O)c2)CC1` (racemic) [Example 68, rac-N-(1-(2-(1-(1-(2,6-dioxopiperidin-3-yl)-3-methyl-2-oxo-2,3-dihydro-1H-benzo[d]imidazol-4-yl)piperidin-4-yl)ethyl)piperidin-4-yl)-1-(6-(2-hydroxyphenyl)pyridazin-4-yl)-4-methoxy-n-methylpiperidine-4-carboxamide] are 19.2 nM, 66.9%, 0.57 nM, 93.2% and 34.
On the same counts, the results for `O=C1CC[C@H](c2ccc(N3CCC(CN4CCC(NC(=O)C5(c6ccccc6)CCN(c6cnnc(-c7ccccc7O)c6)CC5)CC45CCC5)CC3)cc2)C(=O)N1` (stereo partly drawn) [Example 39, N-{5-[(1-{4-[(3R)-2,6-dioxopiperidin-3-yl]phenyl}piperidin-4-yl)methyl]-5-azaspiro[3.5]nonan-8-yl}-1-[6-(2-hydroxyphenyl)pyridazin-4-yl]-4-phenylpiperidine-4-carboxamide] are 79.3 nM, 53.7%, 3.09 nM, 84.8% and 25.67.
The corresponding values for `CN(C(=O)C1(c2ccccc2)CCN(c2cnnc(-c3ccccc3O)c2)CC1)C1CCN(CCC2CCN(c3cccc4c3n(C)c(=O)n4C3CCC(=O)NC3=O)CC2)CC1` (racemic) [Example 130, rac-N-{1-[2-(1-{1-[(3r)-2,6-dioxopiperidin-3-yl]-3-methyl-2-oxo-2,3-dihydro-1H-1,3-benzodiazol-4-yl}piperidin-4-yl)ethyl]piperidin-4-yl}-1-[6-(2-hydroxyphenyl)pyridazin-4-yl]-N-methyl-4-phenylpiperidine-4-carboxamide] are 8.72 nM, 84.4%, 0.31 nM, 96.4% and 28.
In assay [1], `O=C1CCC(c2ccc(N3CCC(C(=O)N4CC5(C4)CN(C(=O)C4(c6ccccc6)CCN(c6cnnc(-c7ccccc7O)c6)CC4)C5)CC3)cc2)C(=O)N1` (racemic) [Example 20, rac-(3R)-3-{4-[4-(6-{1-[6-(2-hydroxyphenyl)pyridazin-4-yl]-4-phenylpiperidine-4-carbonyl}-2,6-diazaspiro[3.3]heptane-2-carbonyl)piperidin-1-yl]phenyl}piperidine-2,6-dione] registered a Dmax of 48.3%. Further, in assay [2], it took 24.6 nM to reach half-maximal degradation (DC50), the greatest degradation seen (Dmax) stood at 67.5% and the “Fold Selectivity SMARCA4/2” value turned out to be 406.6.
Regarding `O=C1CC[C@H](c2ccc(N3CCC(CN4CC5(CCN(C(=O)C6(c7ccccc7)CCN(c7cnnc(-c8ccccc8O)c7)CC6)C5)C4)CC3)cc2)C(=O)N1` [Example 16, (3R)-3-(4-{4-[(6-{1-[6-(2-hydroxyphenyl)pyridazin-4-yl]-4-phenylpiperidine-4-carbonyl}-2,6-diazaspiro[3.4]octan-2-yl)methyl]piperidin-1-yl}phenyl)piperidine-2,6-dione], in assay [1], it took 5020 nM to reach half-maximal degradation (DC50) and the Dmax was determined as 56.1%. Besides, in assay [2], the DC50 was found to be 7.48 nM, the Dmax was 82.6% and the “Fold Selectivity SMARCA4/2” value is reported as 671.32.
On to `O=C1CCC(c2ccc(N3CCC(CN4CC5(C4)CN(C(=O)C4(Cc6ccccc6)CCN(c6cnnc(-c7ccccc7O)c6)CC4)C5)CC3)cc2)C(=O)N1` (racemic) [Example 26, rac-(3R)-3-(4-{4-[(6-{4-benzyl-1-[6-(2-hydroxyphenyl)pyridazin-4-yl]piperidine-4-carbonyl}-2,6-diazaspiro[3.3]heptan-2-yl)methyl]piperidin-1-yl}phenyl)piperidine-2,6-dione], for which the greatest degradation seen (Dmax) in assay [1] was 14.6%. Besides, in assay [2], the greatest degradation seen (Dmax) came to 14.1% and the “Fold Selectivity SMARCA4/2” value was found to be 1.
